Source: patent US20050182128A1, “Use of anethole dithiolethione in lung cancer chemoprevention” (priority 2002, published 2005)
“Also recorded” adds a separate entry of the source. Marks after values point to notes of the source that are not given here.

Columns and labels:
lipid peroxidation = conditions: in-vitro, rat liver microsome model; cited from earlier work
[1] = 25 mg three times daily; cited from earlier work
[2] = test system: glutathione-S-transferase (GST); conditions: rat model of hepatoma; p<0.01; cited from earlier work
[3] = test system: intracellular glutathione; conditions: animals pretreated with various toxins and normal animals; cited from earlier work
aflatoxin tumorigenicity = conditions: rats; cited from earlier work
[4] = Phase IIb trial: adverse events and toxicity monitoring; format: in vivo, human
Description: (§1) Follow Up. The participants were seen monthly for examination of drug related adverse events. Liver enzymes were measured at baseline and at months 3 and 6 for toxicity monitoring. Fluorescence bronchoscopy was repeated after 6 months of study medication. The bronchoscopist was blinded to the intervention assignment. All previously biopsied sites were identified and re-biopsied under fluorescence bronchoscopy. Biopsy was also taken from new areas with abnormal fluorescence.

bronchial dysplasia = assay: Phase IIb randomized placebo-controlled trial: histopathology grade of bronchial biopsies before and after six months; format: in vivo, human
Description: One hundred and one volunteer current and former smokers with ≧30 pack-years smoking history and bronchial dysplasia identified by autofluorescence bronchoscopy directed biopsies were randomly assigned to receive ADT 25 mg orally TID or placebo for six months followed by a repeat bronchoscopy and biopsy of the same sites plus any new areas suspicious of dysplasia. Changes in the histopathology grade of the biopsies were used as the primary endpoint biomarker. All P values were two-sided.
Assessment For Eligibility. Five hundred and fifty-eight current and former smokers over 40 years of age in the Greater Vancouver area with a smoking history of ≧30 pack-years were invited to take part in the study. A former smoker was defined as one who had given up smoking for a year or more. They were recruited through the community outreach network of the public relations department of the British Columbia Cancer Agency (BCCA) using television programs, radio broadcasts and local newspapers. Following an initial interview, which included a questionnaire to document the smoking history, a sputum sample was obtained by induction using simultaneous high frequency chest wall oscillation with the ABI vest (Advanced Respiratory Inc. St. Pauls, Minn.) and 3% hypertonic saline for 12 minutes. […] Of these, 262 agreed to have an autofluorescence bronchoscopy with the LIFE-Lung device (Xillix Technologies Corp., Richmond, BC, Canada) (Lam et al., 1998; Lam et al., 1999). Biopsies were taken from areas with abnormal fluorescence (Lam et al., 1998; Lam et al., 1999). In addition, at least two control biopsies were taken from an upper or lower lobe. The average number of biopsies per subject was 6.7 (range 4 to 12).
Randomization. Participants with one or more sites of bronchial dysplasia were randomly assigned to receive either Sialor® (Solvay Pharma, France) at a dose of 25 mg three times daily by mouth or its placebo for six months. The placebo tablets were identical in size, shape and color to the active drug. Randomization codes were generated by a statistician at the Population and Prevention Oncology Division of BCCA and distributed to the BCCA pharmacy. All study personnel were blinded to the study coeds. Randomization was stratified according to the smoking status (current or former smoker) and dysplasia grade (mild, moderate or severe). Once a participant met the enrollment criteria, the study nurse contacted the pharmacist who then provided the study medication according to the randomization code.
as §1
The primary outcome of the study was changes in the histopathology grade of the bronchial biopsies before and after six months of intervention. The secondary endpoint was changes in the nuclear morphometry index of the bronchial biopsies.
The biopsies were fixed in buffered formalin, embedded in paraffin, sectioned and stained with hematoxylin-eosin (H&E). Two pathologists (JCL, AFG) systematically reviewed them. The pathologists were blinded to the treatment assignments. All biopsies were classified into one of seven groups. Normal: as represented by pseudostratified ciliated columnar epithelium. Basal cell hyperplasia: as represented by an increase in the number and stratification of normal-appearing basal cells still covered with normal ciliated or mucin secreting cells. Metaplasia: as represented by a stratified epithelium and cytoplasmic changes consistent with squamoid differentiation. […]

[5] = histopathology, lesion specific, 6 months
[6] = histopathology, person specific, of 56

For `COc1ccc(-c2cc(=S)ss2)cc1` [ADT, 5-(p-methoxyphenyl)-1,2-dithiole-3-thione], the “Inhibition of lipid peroxidation” value (lipid peroxidation) is given as “potent inhibitor of lipid peroxidation”, the “Safety and efficacy at therapeutic dose” value [1] is given as “safe and effective” and the “Mean GST levels in the liver” value [2] is given as “statistically increased”. For the same compound, the Intracellular glutathione [3] was “increase of intracellular glutathione”, the “Protection against aflatoxin tumorigenicity” value (aflatoxin tumorigenicity) was “protective action against aflatoxin tumorigenicity” and the “Adverse events, overall description” value ([4]; 25 mg orally TID, six months) was “mostly minor gastrointestinal symptoms that resolved with dose reduction or discontinuation of the medication; also recorded: only adverse events observed were gastrointestinal”. For the same compound, the “Symptoms significantly more frequent than with placebo” value ([4]; P=0.018) was “Only abdominal bloating was significantly more frequent”, the “Subjects with dose reduced to 25 mg BID” value ([4]; of 56) was 17 and the “Subjects with dose reduced to 25 mg QD” value ([4]; of 56) was 4. For the same compound, the Constipation ([4]; placebo 0%) was 5%, the “Increased Saliva” value ([4]; placebo 4%) was 2% and the “Abdominal Bloating” value ([4]; placebo 4%, P = 0.01 compared to placebo) was 25%*. The “Participants with Grade 3 symptoms” value ([4]; placebo 6%) was 11%, the “Loose Stool” value ([4]; placebo 8%) was 16% and the Diarrhea ([4]; placebo 12%) was 13%. For the same compound, the “Participants with Grade 2 symptoms” value ([4]; placebo 20%) was 51%, the “Participants requiring dose reduction” value ([4]; placebo 25%) was 45% and the “Excessive Flatus” value ([4]; placebo 53%) was 93%. The “Grade 3 elevation of liver enzymes” value ([4]; returned to normal after discontinuation) was “One of the participants”, the “Progression of pre-existing dysplastic lesions and/or appearance of new lesions compared to placebo” value (bronchial dysplasia; 6 months, 25 mg orally TID) was “significantly lower rate of progression; also recorded: statistically reduces the appearances of new dysplastic lesion or progression of pre-existing dysplastic lesions” and the “CR or PD rates, full dose compared to reduced dose” value (bronchial dysplasia; all P-values >0.90) was “no significant difference in the CR or PD rates”. The “Biopsies of grade 1 (normal/hyperplasia) at 6 months follow-up” value (from here on “Biopsies of grade 1 (normal/hyperplasia)”) (bronchial dysplasia; baseline grade 1) was 100, the “Biopsies of grade 2 (metaplasia) at 6 months follow-up” value (“Biopsies of grade 2 (metaplasia)” for short) (bronchial dysplasia; baseline grade 1) was 9 and the “Biopsies of grade 3 (mild dysplasia) at 6 months follow-up” value (“Biopsies of grade 3 (mild dysplasia)” for short) (bronchial dysplasia; baseline grade 1) was 5. For the same compound, the “Biopsies of grade 4 (moderate dysplasia) at 6 months follow-up” value (“Biopsies of grade 4 (moderate dysplasia)” for short) (bronchial dysplasia; baseline grade 1) was 2, the “Biopsies of grade 5 (severe dysplasia) at 6 months follow-up” value (“Biopsies of grade 5 (severe dysplasia)” for short) (bronchial dysplasia; baseline grade 1) was 0 and the “Biopsies of grade 1 (normal/hyperplasia)” value (bronchial dysplasia; baseline grade 2) was 22. For the same compound, the “Biopsies of grade 2 (metaplasia)” value (bronchial dysplasia; baseline grade 2) was 2, the “Biopsies of grade 3 (mild dysplasia)” value (bronchial dysplasia; baseline grade 2) was 3 and the “Biopsies of grade 4 (moderate dysplasia)” value (bronchial dysplasia; baseline grade 2) was 0. The “Biopsies of grade 5 (severe dysplasia)” value (bronchial dysplasia; baseline grade 2) was 0, the “Biopsies of grade 1 (normal/hyperplasia)” value (bronchial dysplasia; baseline grade 3) was 53 and the “Biopsies of grade 2 (metaplasia)” value (bronchial dysplasia; baseline grade 3) was 14. For the same compound, the “Biopsies of grade 3 (mild dysplasia)” value (bronchial dysplasia; baseline grade 3) was 27, the “Biopsies of grade 4 (moderate dysplasia)” value (bronchial dysplasia; baseline grade 3) was 6 and the “Biopsies of grade 5 (severe dysplasia)” value (bronchial dysplasia; baseline grade 3) was 0. The “Biopsies of grade 1 (normal/hyperplasia)” value (bronchial dysplasia; baseline grade 4) was 8, the “Biopsies of grade 2 (metaplasia)” value (bronchial dysplasia; baseline grade 4) was 0 and the “Biopsies of grade 3 (mild dysplasia)” value (bronchial dysplasia; baseline grade 4) was 2. For the same compound, the “Biopsies of grade 4 (moderate dysplasia)” value (bronchial dysplasia; baseline grade 4) was 3, the “Biopsies of grade 5 (severe dysplasia)” value (bronchial dysplasia; baseline grade 4) was 1 and the “Biopsies of grade 1 (normal/hyperplasia)” value (bronchial dysplasia; baseline grade 5) was 0. For the same compound, the “Biopsies of grade 2 (metaplasia)” value (bronchial dysplasia; baseline grade 5) was 0, the “Biopsies of grade 3 (mild dysplasia)” value (bronchial dysplasia; baseline grade 5) was 2 and the “Biopsies of grade 4 (moderate dysplasia)” value (bronchial dysplasia; baseline grade 5) was 0. For the same compound, the “Biopsies of grade 5 (severe dysplasia)” value (bronchial dysplasia; baseline grade 5) was 0, the “Biopsies of grade 1 (normal/hyperplasia)” value (bronchial dysplasia; baseline: not sampled) was 34 and the “Biopsies of grade 2 (metaplasia)” value (bronchial dysplasia; baseline: not sampled) was 8. For the same compound, the “Biopsies of grade 3 (mild dysplasia)” value (bronchial dysplasia; baseline: not sampled) was 13, the “Biopsies of grade 4 (moderate dysplasia)” value (bronchial dysplasia; baseline: not sampled) was 0 and the “Biopsies of grade 5 (severe dysplasia)” value (bronchial dysplasia; baseline: not sampled) was 1. The CR rate (bronchial dysplasia; dose reduction yes) was 24%, the PD rate (bronchial dysplasia; dose reduction yes) was 32% and the PR rate (bronchial dysplasia; dose reduction yes) was 32%. For the same compound, the “CR, number of participants” value (bronchial dysplasia; dose reduction yes, of 25) was 6, the “PD, number of participants” value (bronchial dysplasia; dose reduction yes, of 25) was 8 and the “PR, number of participants” value (bronchial dysplasia; dose reduction yes, of 25) was 8. The “PD rate lower than placebo, person specific analysis” value (bronchial dysplasia; histopathology, 6 months) was 22%, the “Partial response (PR) rate, person specific analysis” value (bronchial dysplasia; histopathology, 6 months) was “(23%)” and the “Stable disease (SD) rate, person specific analysis” value (bronchial dysplasia; histopathology, 6 months) was “(18%)”. The “Progressive disease (PD) rate, lesion specific analysis” value (bronchial dysplasia; histopathology, 6 months ADT 25 mg orally TID, placebo 17%, P<0.001) was 8%, the “Complete response (CR) rate, lesion specific analysis” value (bronchial dysplasia; histopathology, 6 months, placebo 41%, P=0.14) was 53% and the “PD rate lower than placebo, lesion specific analysis” value (bronchial dysplasia; histopathology, 8% ADT versus 17% placebo) was 9%. For the same compound, the “CR rate higher than placebo, person specific analysis” value (bronchial dysplasia; histopathology, 27% versus 16%) was 11%, the “CR rate higher than placebo, lesion specific analysis” value (bronchial dysplasia; histopathology, 53% versus 41%, not significant) was 12% and the “CR lesions / dysplastic lesions at baseline” value (bronchial dysplasia; [5]) was 61/116. For the same compound, the “PD lesions / all biopsies” value (bronchial dysplasia; [5]) was 24/315, the “CR, number of participants” value (bronchial dysplasia; [6]) was 15 and the “PD, number of participants” value (bronchial dysplasia; [6]) was 18. The “PR, number of participants” value (bronchial dysplasia; [6]) was 13, the “Association of treatment with odds of CR” value (bronchial dysplasia; multiple logistic regression) was “not significantly associated with increasing odds of CR” and the “OR, likelihood of progressive disease six months after intervention” value (bronchial dysplasia; multiple logistic regression, ADT is reference, placebo OR 3.5 (95% CI 1.3-9.3, P 0.01)) was 1. For the same compound, the PD rate (bronchial dysplasia; no dose reduction) was 32%, the PR rate (bronchial dysplasia; no dose reduction) was 16% and the CR rate (bronchial dysplasia; no dose reduction (full 25 mg TID)) was 29%. The “CR, number of participants” value (bronchial dysplasia; no dose reduction (full 25 mg TID), of 31) was 9, the “PD, number of participants” value (bronchial dysplasia; no dose reduction, of 31) was 10 and the “PR, number of participants” value (bronchial dysplasia; no dose reduction, of 31) was 5. The “Biopsies of grade 1 (normal/hyperplasia)” value (bronchial dysplasia; total of all baseline grades) was 217, the “Biopsies of grade 2 (metaplasia)” value (bronchial dysplasia; total of all baseline grades) was 33 and the “Biopsies of grade 3 (mild dysplasia)” value (bronchial dysplasia; total of all baseline grades) was 52. For the same compound, the “Biopsies of grade 4 (moderate dysplasia)” value (bronchial dysplasia; total of all baseline grades) was 11 and the “Biopsies of grade 5 (severe dysplasia)” value (bronchial dysplasia; total of all baseline grades) was 2.
